# In paper PMC2574845 (Drug metabolism and disposition: the biological fate of …, 2008):
# How the values were obtained:
# Metabolism [1] = settings: human liver microsomes, 50 μM BA, pH 7.4, 35 °C, > indicates p<0.05
# Metabolism [2] = settings: mouse liver microsomes, 50 μM BA, pH 7.4, 35 °C; for relative oxygen consumption rates, NADH-dependent metabolism, rank order: > indicates p<0.05; for oxygen consumption rates, NADPH-dependent metabolism, comparison: p<0.05
# [3] = BA-glutathione conjugate formation; settings: 50 μM BA; for relative rate of glutathione conjugate formation, rank order / fraction of BA conjugated with glutathione: 5 mM glutathione, pH 7.4, room temperature; for fraction of BA conjugated with glutathione: data not shown
# [4] = Quinone/hydroquinone cycling in microsomal incubations; settings: microsomal incubation with NAD(P)H; data not shown
# rhNQO1 = rhNQO1 (Homo sapiens, UniProt P15559); assay: Prevention of GM and 17DMAG glutathione conjugate formation by rhNQO1; type: biochemical; settings: for prevention of conjugation with glutathione by NQO1 reduction: 50 μM BA, 5 mM GSH, 11.8 μg rhNQO1, 500 μM NADH, pH 7.4, room temperature
# Chain of rhNQO1 (P15559 whole entry): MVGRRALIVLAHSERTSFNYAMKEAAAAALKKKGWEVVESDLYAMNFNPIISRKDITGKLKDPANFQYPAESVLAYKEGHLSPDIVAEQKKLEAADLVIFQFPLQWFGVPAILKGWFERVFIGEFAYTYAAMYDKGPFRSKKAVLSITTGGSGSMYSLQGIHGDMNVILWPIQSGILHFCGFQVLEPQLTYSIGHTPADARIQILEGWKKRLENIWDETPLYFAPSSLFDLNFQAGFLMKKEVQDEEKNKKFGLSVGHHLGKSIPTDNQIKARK
# [5] = in water; ref Lang et al., 2007; cited from earlier work
# [6] = 5 min, 50 μM, pH 7.4
# [7] = target: T1, human NADPH-cytochrome P450 reductase (Homo sapiens, UniProt P16435); settings: GM, NADH and NADPH-cytochrome P450 reductase, no NADPH
# T1 sequence (P16435 1-677): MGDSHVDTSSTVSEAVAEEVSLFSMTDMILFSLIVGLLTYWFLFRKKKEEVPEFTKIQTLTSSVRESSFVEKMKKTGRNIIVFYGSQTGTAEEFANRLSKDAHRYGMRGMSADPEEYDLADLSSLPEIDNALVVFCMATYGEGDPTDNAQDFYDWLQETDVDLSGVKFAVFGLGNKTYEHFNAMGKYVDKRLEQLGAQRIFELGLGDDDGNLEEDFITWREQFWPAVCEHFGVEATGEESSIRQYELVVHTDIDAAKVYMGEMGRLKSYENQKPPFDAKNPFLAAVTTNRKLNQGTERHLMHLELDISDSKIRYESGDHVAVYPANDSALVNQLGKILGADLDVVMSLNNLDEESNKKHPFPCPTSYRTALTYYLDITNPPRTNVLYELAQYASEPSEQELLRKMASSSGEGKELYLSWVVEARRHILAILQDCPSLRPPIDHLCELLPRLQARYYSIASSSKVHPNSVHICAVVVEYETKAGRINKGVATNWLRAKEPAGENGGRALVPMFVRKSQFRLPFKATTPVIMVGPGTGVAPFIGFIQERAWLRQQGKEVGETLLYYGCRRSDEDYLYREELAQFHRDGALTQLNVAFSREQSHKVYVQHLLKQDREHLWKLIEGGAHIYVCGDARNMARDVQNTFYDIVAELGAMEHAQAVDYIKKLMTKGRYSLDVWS
# [8] = target: recombinant human NQO1 (rhNQO1) (Homo sapiens, UniProt P15559); assay: Relative stability of hydroquinone ansamycins; type: physicochemical; settings: for relative stability of BAH2 (nmol oxygen consumption per nmol NADH oxidized), rank order: 50 mM potassium phosphate buffer, pH 7.4, 35 °C, BAH2 generated by rhNQO1 and NADH, > indicates p<0.05
# Chain of recombinant human NQO1 (rhNQO1) (P15559 whole entry): as the sequence (P15559 whole entry) above
"oxygen consumption rates, NADPH-dependent metabolism, comparison (Metabolism [2])",compound in the quinone form on HPLC [4],"relative stability of BAH2 (nmol oxygen consumption per nmol NADH oxidized), rank order [8]",Compound,"relative oxygen consumption rates, NADH-dependent metabolism, rank order (Metabolism [1])","relative oxygen consumption rates, NADPH-dependent metabolism, rank order (Metabolism [1])","relative oxygen consumption rates, NADH-dependent metabolism, rank order (Metabolism [2])","relative rate of glutathione conjugate formation, rank order [3]",further results
significantly greater than 17AAG,> 95%,–,"CO[C@H]1/C=C\C=C(/C)C(=O)NC2=CC(=O)C(N)=C(C[C@@H](C)C[C@H](OC)[C@H](O)[C@@H](C)/C=C(\C)[C@@H]1OC(N)=O)C2=O [17AG, 17-(amino)-17-demethoxygeldanamycin]","GM>17DMAG, 17AG, 17AEP-GA>17AAG","GM, 17DMAG, 17AEP-GA>17AG>17AAG","GM>17DMAG>17AG, 17AEP-GA, 17AAG","GM>17DMAG>17AEP-GA>17AAG, 17AG",fraction of BA conjugated with glutathione ([3]; after 24 hours): less than 15%
significantly greater than 17AAG,about 70%,–,"COC1=C2C[C@@H](C)C[C@H](OC)[C@H](O)[C@@H](C)/C=C(\C)[C@H](OC(N)=O)[C@@H](OC)/C=C\C=C(/C)C(=O)NC(=CC1=O)C2=O [GM, geldanamycin]","GM>17DMAG, 17AG, 17AEP-GA>17AAG","GM, 17DMAG, 17AEP-GA>17AG>17AAG","GM>17DMAG>17AG, 17AEP-GA, 17AAG","GM>17DMAG>17AEP-GA>17AAG, 17AG",one-electron redox potential [5]: −0.243 V; glutathione conjugate (GMH2-SG) formed [6]: approximately 45 μM; prevention of conjugation with glutathione by NQO1 reduction (rhNQO1): > 95%; oxygen consumption with NADH as cofactor [7]: no oxygen consumption was observed
–,–,–,"COC1=CC(=O)c2c(c(COc3ccc([N+](=O)[O-])cc3)c(C)n2C)C1=O [ES936, 5-methoxy-1,2-dimethyl-3-[(4-nitrophenoxy)methyl]indole-4,7-dione]",–,–,–,–,"effect on NQO1-mediated prevention of BA glutathione conjugation (rhNQO1; pretreatment with 2 μM ES936, GM or 17DMAG with NADH, rhNQO1 and glutathione): abrogated"
–,–,"GMH2>17AAGH2>17DMAGH2>17AGH2, 17AEP-GAH2","C=CCNc1c(O)cc2c(O)c1C[C@@H](C)C[C@H](OC)[C@H](O)[C@@H](C)/C=C(\C)[C@H](OC(N)=O)[C@@H](OC)/C=C\C=C(/C)C(=O)N2 [17AAGH2, 17-(allylamino)-17-demethoxygeldanamycin hydroquinone]",–,–,–,–,–
–,–,"GMH2>17AAGH2>17DMAGH2>17AGH2, 17AEP-GAH2","CO[C@H]1/C=C\C=C(/C)C(=O)Nc2cc(O)c(NCCN(C)C)c(c2O)C[C@@H](C)C[C@H](OC)[C@H](O)[C@@H](C)/C=C(\C)[C@@H]1OC(N)=O [17DMAGH2, 17-demthoxy-17-[[2-(dimethylamino)ethyl]amino]-geldanamycin hydroquinone]",–,–,–,–,–
significantly slower compared to GM,> 95%,–,"C=CCNC1=C2C[C@@H](C)C[C@H](OC)[C@H](O)[C@@H](C)/C=C(\C)[C@H](OC(N)=O)[C@@H](OC)/C=C\C=C(/C)C(=O)NC(=CC1=O)C2=O [17AAG, 17-(allylamino)-17-demethoxygeldanamycin]",–,–,–,–,one-electron redox potential [5]: −0.390 V; fraction of BA conjugated with glutathione ([3]; after 24 hours): less than 15%
–,–,"GMH2>17AAGH2>17DMAGH2>17AGH2, 17AEP-GAH2","COC1C=CC=C(C)C(=O)Nc2cc(O)c(NCCN3CCCC3)c(c2O)CC(C)CC(OC)C(O)C(C)C=C(C)C1OC(N)=O (stereo not shown) [17AEP-GAH2, 17-demethoxy-17-[[2-(pyrrolidin-1-yl)ethyl]amino]-geldanamycin hydroquinone]",–,–,–,–,half-life of auto-oxidation of BAH2 back to quinone (in words) ([8]; auto-oxidation over time): a few minutes

Compound,"oxygen consumption rates, NADPH-dependent metabolism, comparison (Metabolism [2])",compound in the quinone form on HPLC [4],"relative stability of BAH2 (nmol oxygen consumption per nmol NADH oxidized), rank order [8]","relative oxygen consumption rates, NADH-dependent metabolism, rank order (Metabolism [1])","relative oxygen consumption rates, NADPH-dependent metabolism, rank order (Metabolism [1])","relative oxygen consumption rates, NADH-dependent metabolism, rank order (Metabolism [2])","relative rate of glutathione conjugate formation, rank order [3]",further results
"CO[C@H]1/C=C\C=C(/C)C(=O)NC2=CC(=O)C(NCCN(C)C)=C(C[C@@H](C)C[C@H](OC)[C@H](O)[C@@H](C)/C=C(\C)[C@@H]1OC(N)=O)C2=O [17DMAG, 17-demethoxy-17-[[2-(dimethylamino)ethyl]amino]-geldanamycin]",significantly greater than 17AAG,> 95%,–,"GM>17DMAG, 17AG, 17AEP-GA>17AAG","GM, 17DMAG, 17AEP-GA>17AG>17AAG","GM>17DMAG>17AG, 17AEP-GA, 17AAG","GM>17DMAG>17AEP-GA>17AAG, 17AG","glutathione conjugate (17DMAG-SG) formed ([3]; 5 mM reduced glutathione, phosphate buffer pH 7.4, room temperature, within 4 hours): approximately 47 μM; prevention of conjugation with glutathione by NQO1 reduction (rhNQO1): > 95%"
"COc1c(O)cc2c(O)c1C[C@@H](C)C[C@H](OC)[C@H](O)[C@@H](C)/C=C(\C)[C@H](OC(N)=O)[C@@H](OC)/C=C\C=C(/C)C(=O)N2 [GMH2, geldanamycin hydroquinone]",–,–,"GMH2>17AAGH2>17DMAGH2>17AGH2, 17AEP-GAH2",–,–,–,–,half-life of auto-oxidation of BAH2 back to quinone ([8]; auto-oxidation over time): about 20 hours
"CO[C@H]1/C=C\C=C(/C)C(=O)NC2=CC(=O)C(NCCN3CCCC3)=C(C[C@@H](C)C[C@H](OC)[C@H](O)[C@@H](C)/C=C(\C)[C@@H]1OC(N)=O)C2=O [17AEP-GA, 17-demethoxy-17-[[2-(pyrrolidin-1-yl)ethyl]amino]-geldanamycin]",significantly greater than 17AAG,–,–,"GM>17DMAG, 17AG, 17AEP-GA>17AAG","GM, 17DMAG, 17AEP-GA>17AG>17AAG","GM>17DMAG>17AG, 17AEP-GA, 17AAG","GM>17DMAG>17AEP-GA>17AAG, 17AG",fraction of BA conjugated with glutathione ([3]; within 10 hours): about 90%
"COC1C=CC=C(C)C(=O)Nc2cc(O)c(N)c(c2O)CC(C)CC(OC)C(O)C(C)C=C(C)C1OC(N)=O (stereo not shown) [17AGH2, 17-(amino)-17-demethoxygeldanamycin hydroquinone]",–,–,"GMH2>17AAGH2>17DMAGH2>17AGH2, 17AEP-GAH2",–,–,–,–,–
